In US5608104A, “Immunological detection method of pyrethroid compound, haptenic compound, intermediate for the haptenic compound, immunogen and antibody” (Mitsui Toatsu Chemicals, Inc., priority 1993, dated 1997):

What was measured:
[1] = system: anti-etofenprox antibody I (E-antibody I); experiment: Indirect competitive ELISA employing E-antibody I; format: binding, rabbit; conditions: inhibition rate relative to etofenprox at its IC50 concentration (=100%); antibody 1/40,000, 50% methanol
Description: 1. To a 96-well polystyrene microtiter plate, a solution of the conjugate between rabbit serum albumin (RSA) and the haptenic compound (I) dissolved in a coating buffer solution [10 mM phosphate buffer solution (pH 7.5), 100 mM NaC1] to give […] was added as an antigen at a ratio of 0.1 ml/well, followed by incubation at 4° C. overnight, whereby the antigen was adsorbed on the plate. After the excess solution was drained, a 3% solution of skim milk was added to the wells at a ratio of 0.3 ml/well, followed by incubation at 25° C. for one hour. The plate was washed thrice with a washing buffer [10 mM phosphate buffer solution (pH 7.2), 0.8% NaC1, 0.02% KCl, 0.02% "Tween 20"], whereby an antigen-coated plate was obtained.
2. The E-antibody I was diluted 20,000-fold with a diluting buffer [10 mM phosphate buffer solution (pH 7.5), 0.8% NaCl, 0.02% KCl] and was then mixed with a solution of etofenprox in methanol at a ratio of 1:1 to give an antibody concentration and a methanol concentration, both in the resulting solution, of 1/40,000 and 50%, respectively. The solution was reacted by incubation at 25° C. for one hour. The reaction mixture was added to the antigen-coated plate at a rate of 0.1 ml/well, followed by the reaction at 25° C. for one hour. The plate was then washed thrice with the washing buffer.
3. A conjugate between horseradish peroxidase and anti-rabbit IgG goat IgG (a second antibody) was diluted 10,000-fold with the washing buffer. The diluted conjugate was added to the antigen-coated plate at a rate of 0.1 ml/well, followed by incubation at 25° C. for one hour. The plate was washed thrice with the washing buffer.
4. To the antigen-coated plate, a chromogenic solution of o-phenylenediamine [0.2% (v/v) o-phenylenediamine and 100 mM phosphate-citrate buffer solution [pH 5.0, 0.003% (v/v) hydrogen peroxide] was added in an amount of 0.2 ml/well, followed by incubation at 25° C. for 10 minutes. The enzymatic reaction was then terminated by adding 4N sulfuric acid to the plate by at a rate of 0.05 ml/well. The absorbances at 492 nm and 630 nm were thereafter measured, respectively. According to this method, etofenprox concentrations ranging from 10 ng/ml to 10,000 ng/ml were successfully measured.
A solution of each of various pyrethroid compounds in methanol (having a concentration of 2-20,000 ng/ml) was mixed with a solution of the E antibody I, which had been diluted 20,000-fold with a diluting buffer, at a ratio of 1:1, followed by incubation at 25° C. for one hour.
Using the reaction mixture, measurement was conducted by the ELISA method as described in Example 8. The absorbance of the reaction mixture which had been obtained without addition of any pyrethroid compound is designated as 100%. The concentration of etophenprox. which inhibited 50% of the absorbance is designated as IC50 concentration. The inhibition rates of other pyrethroid compounds when the inhibition rate of ethophenprox at IC50 concentration is designated as 100% are shown as cross reactivity in Table 1.

[2] = system: anti-etofenprox antibody II (E-antibody II); experiment: Indirect competitive ELISA employing E-antibody II; format: binding, rabbit; conditions: inhibition rate relative to etofenprox at its IC50 concentration (=100%); antibody 1/80,000, 20% methanol
Description: The ELISA method employing E-antibody II, on the other hand, will be described next. As the antigen, a 0.01 μg/ml solution of the conjugate between the haptenic compound (II) and RSA was employed. An E-antibody II solution, which had been diluted 64,000-fold, and a methanol solution of etofenprox were mixed at a ratio of 4:1 to give an antibody concentration and methanol concentration, each in the resulting solution, of 1/80,000 and 20%, respectively. The resulting solution was then reacted. As a second antibody, antirabbit IgG goat IgG in the form of a 5000-fold dilution was employed. In a similar manner to the above ELISA method, etofenprox concentrations ranging from 3 ng/ml to 1,000 ng/ml were successfully measured.
In addition, solutions of each of various pyrethroid compounds in methanol (concentration: 5-50,000 ng/ml) were each mixed with an E antibody II solution, which had been diluted 64,000-fold, at a ratio of 1:4, followed by incubation at 25° C. for one hour. The reaction mixture was treated as described in Example 8 and its cross reactivity was obtained.
The inhibition rates of other pyrethroid compounds when the inhibition rate of ethophenprox at IC50 concentration is designated as 100% are also shown as cross reactivity in Table 1.

Row | SMILES | Cross reactivity (%) E antibody I [1] | Cross reactivity (%) E antibody II [2]
1 | C=CCC1=C(C)C(OC(=O)C2C(C=C(C)C)C2(C)C)CC1=O (stereo not shown) [Allethrin, allethrin] | 46% | 54%
2 | Cc1c(COC(=O)C2C(C=C(Cl)C(F)(F)F)C2(C)C)cccc1-c1ccccc1 (stereo not shown) [Biphenthrin, biphenthrin] | 86% | 81%
3 | CCOc1ccc(C2(C(=O)OC(C#N)c3cccc(Oc4ccccc4)c3)CC2(Cl)Cl)cc1 (stereo not shown) [Cycloprothrin, cycloprothrin] | 103% | 54%
4 | CC1(C)C(/C=C(\Cl)C(F)(F)F)C1C(=O)OC(C#N)c1cccc(Oc2ccccc2)c1 (stereo not shown) [Cyhalothrin, cyhalothrin] | 92% | 36%
5 | CC1(C)C(C(=O)OC(C#N)c2cccc(Oc3ccccc3)c2)C1(C)C (stereo not shown) [Fenpropathrin, fenpropathrin] | 136% | 48%
6 | CC(C)C(C(=O)OC(C#N)c1cccc(Oc2ccccc2)c1)c1ccc(Cl)cc1 (stereo not shown) [Fenvarerate, fenvarerate] | 47% | 50%
7 | CC(C)[C@H](C(=O)OC(C#N)c1cccc(Oc2ccccc2)c1)c1ccc(OC(F)F)cc1 (stereo partly shown) [Flucythrinate, flucythrinate] | 126% | 60%
8 | CCOc1ccc(C(COCc2cccc(Oc3ccc(Cl)cc3)c2)C(F)(F)F)cc1 (stereo not shown) [Flufenprox] | 108% | 74%
9 | CC(C)[C@H](Nc1ccc(C(F)(F)F)cc1Cl)C(=O)OC(C#N)c1cccc(Oc2ccccc2)c1 (stereo partly shown) [Fluvalinate, fluvalinate] | 70% | 23%
10 | CC(C)(COCc1cccc(Oc2ccccc2)c1)c1ccc(OC(F)(F)Br)cc1 [Halfenprox, halfenprox] | 85% | 75%
11 | CC1(C)[C@H](C(=O)OCc2coc(Cc3ccccc3)c2)[C@@H]1/C=C1\CCSC1=O [Kadethrin, kadethrin] | 62% | 164%
12 | CCOc1ccc(C(C)(C)CCCc2cccc(Oc3ccccc3)c2)cc1 [MTI-790, 1-(3-phenoxyphenyl)-4-(4-ethoxyphenyl)-4-methylpentane] | 23% | 37%
13 | CCOc1ccc(C(C)(C)CCCc2ccc(F)c(Oc3ccccc3)c2)cc1 [MTI-800, 1-(3-phenoxy-4-fluorophenyl)-4-(4-ethoxyphenyl)-4-methylpentane] | 54% | 34%
14 | CC(C)=CC1C(C(=O)OCc2coc(Cc3ccccc3)c2)C1(C)C (stereo not shown) [Resmethrin, resmethrin] | 74% | 85%
15 | CCOc1ccc([Si](C)(C)OCc2cccc(Oc3ccccc3)c2)cc1 [SSI-116, dimethyl-(4-ethoxyphenyl)-(3-phenoxybenzyloxy)silane] | 70% | 103%
16 | CCOc1ccc([Si](C)(C)CCCc2ccc(F)c(Oc3ccccc3)c2)cc1 [Silafluofen, silafluofen] | 57% | 32%
17 | CC1(C)[C@H](C(=O)O[C@H](C#N)c2cccc(Oc3ccccc3)c2)[C@@H]1C(Br)C(Br)(Br)Br (stereo partly shown) [Tralomethrin, tralomethrin] | 116% | 67%
